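All cell lines were grown in 96-well plates and treated with compound for 48 hours. GI50 = concentration required for 50% inhibition of growth.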 The source made the active and inactive calls. No stated cut-off is given here; in the data, active = GI50 up to about 1.1 µM and inactive = higher. A value given as a limit tells only on which side of the number the result lay.

Some test systems named below: T47D; HCT-15; MDA-MB-231; SW-620; SN12C; SF-539; NCI-H226; NCI-H460; HCC 2998; EKVX; A549; SF-268; BT-549; RXF 393; Hs-578T; MCF7; MOLT-4; CCRF-CEM.
Common to all, as to test: growth of human tumour cells (NCI), 48 h

As to `COc1ccc(Cc2c(N)[nH]c(=O)[nH]c2=O)cc1`, the GI50 in the experiment with T47D was > 100 µM (inactive); with HCT-15 it was greater than 100 µM; with MDA-MB-231, > 100 µM (inactive); with SW-620 it was > 100 µM (inactive); in the experiment on SN12C it was > 100 µM (inactive); with SF-539 it was > 100 µM (inactive). Further, the GI50 with NCI-H226, in the experiment with NCI-H460, with HCC 2998, in the experiment on EKVX, in the experiment on A549 and in the experiment on SF-268 was > 100 µM (inactive) throughout. Also, the GI50 with BT-549, in the experiment with RXF 393 and in the experiment with Hs-578T was > 100 µM (inactive) in each case.
`CC1(C)CC(=O)C(=CNC(=S)c2ccccc2)C(=O)C1`: the GI50 was > 100 µM (inactive) with MCF7; greater than 100 µM in the experiment with HCT-15; > 100 µM (inactive) in the experiment with MDA-MB-231; > 100 µM (inactive) in the experiment with SW-620; 13.6 µM (inactive) in the experiment with MOLT-4; > 100 µM (inactive) with SN12C. For the same compound, the GI50 in the experiment on SF-539, with NCI-H226, with NCI-H460, with HCC 2998, in the experiment on EKVX and in the experiment on A549 was > 100 µM (inactive) in each case. Besides, the GI50 was 27 µM (inactive) in the experiment on CCRF-CEM, > 100 µM (inactive) in the experiment on SF-268, > 100 µM (inactive) in the experiment with BT-549 and > 100 µM (inactive) with Hs-578T.
On to `C=CC(Br)(CBr)CCC1OC1(C)C` (centres undefined), for which the GI50 in the experiment on MCF7 is 14.1 µM (inactive); in the experiment with MDA-MB-231, 11.8 µM (inactive); in the experiment on SW-620 it was 13.1 µM (inactive); with MOLT-4, 16.7 µM (inactive); in the experiment on SN12C, 16.6 µM (inactive); in the experiment with SF-539, 19.5 µM (inactive). Also, the GI50 with NCI-H226 was 19.8 µM (inactive); with NCI-H460, 14.2 µM (inactive); in the experiment on HCC 2998 it was 18.9 µM (inactive); in the experiment with EKVX it was 20.3 µM (inactive); in the experiment on A549, 23.1 µM (inactive); in the experiment on CCRF-CEM, 29.9 µM (inactive). For the same compound, the GI50 was 16.7 µM (inactive) in the experiment with SF-268, 16.6 µM (inactive) in the experiment on BT-549, 9.23 µM (inactive) with RXF 393 and 15 µM (inactive) with Hs-578T.
With `O=C(c1cccs1)N(C(=O)N1CCN(c2ccccc2)CC1)S(=O)(=O)c1ccccc1`, the GI50 in the experiment on MCF7 was 27.4 µM (inactive); in the experiment on T47D, 12.7 µM (inactive); in the experiment with HCT-15, 28.5 µM; with MDA-MB-231, 23.1 µM (inactive); with SW-620, 31.5 µM (inactive); in the experiment on MOLT-4, 20.2 µM (inactive). Besides, the GI50 in the experiment on SN12C was 17.5 µM (inactive); in the experiment with SF-539, 17.9 µM (inactive); with NCI-H226 it was 19.8 µM (inactive); in the experiment with NCI-H460 it was 28.2 µM (inactive); in the experiment on HCC 2998 it was 40.1 µM (inactive); with EKVX it was 16.7 µM (inactive). Further, the GI50 in the experiment with A549 was 32.8 µM (inactive); in the experiment with CCRF-CEM, 20.8 µM (inactive); with SF-268 it was 27.3 µM (inactive); in the experiment with BT-549, 28.2 µM (inactive); in the experiment with Hs-578T, 23.8 µM (inactive).
As to `OCC(O)COCn1cc(Cn2ncc3c(NCc4ccccc4)ncnc32)nn1` (centres undefined), the GI50 is > 100 µM (inactive) with MCF7; > 100 µM (inactive) with T47D; greater than 100 µM with HCT-15; > 100 µM (inactive) in the experiment on MDA-MB-231; > 100 µM (inactive) in the experiment with SW-620; > 100 µM (inactive) in the experiment with MOLT-4. Besides, the GI50 in the experiment on SN12C, in the experiment on SF-539, with NCI-H226, with HCC 2998, in the experiment on EKVX and with A549 was > 100 µM (inactive) in each case. In addition, the GI50 with CCRF-CEM is > 100 µM (inactive); with SF-268, 17.7 µM (inactive); in the experiment on BT-549, > 100 µM (inactive); with Hs-578T it was 25 µM (inactive).
As for `N=c1c2ccccc2nc2oc3ccc(Cl)cc3n12`, the GI50 with HCT-15 is 48 µM; with MDA-MB-231, 25.6 µM (inactive); with SW-620, 5.62 µM (inactive); with MOLT-4, 35.3 µM (inactive); in the experiment on SN12C, 9.46 µM (inactive); in the experiment on SF-539, 15.5 µM (inactive). In addition, the GI50 was 17.8 µM (inactive) in the experiment on NCI-H226; 25.8 µM (inactive) with NCI-H460; > 100 µM (inactive) with HCC 2998; 15.6 µM (inactive) in the experiment on EKVX; 12.9 µM (inactive) with A549; 43.9 µM (inactive) in the experiment with CCRF-CEM. Besides, the GI50 was 34.2 µM (inactive) in the experiment on SF-268, 36.6 µM (inactive) in the experiment on BT-549, 11.9 µM (inactive) with RXF 393 and 2.28 µM (inactive) in the experiment with Hs-578T.
`COc1cc(/C=C2\C(=O)N(c3cccc(NC(C)=O)c3)C(c3ccccc3)S2(=O)=O)cc(OC)c1OC` (centres undefined): the GI50 was 31 µM (inactive) with MCF7; 34.7 µM (inactive) with T47D; 71.4 µM in the experiment on HCT-15; > 100 µM (inactive) with MDA-MB-231; 56.2 µM (inactive) with SW-620; 19.8 µM (inactive) in the experiment with MOLT-4. For the same compound, the GI50 was 67.5 µM (inactive) in the experiment with SN12C; 48.3 µM (inactive) with SF-539; 67.6 µM (inactive) with NCI-H226; 67.5 µM (inactive) in the experiment on NCI-H460; > 100 µM (inactive) in the experiment on HCC 2998; 74.1 µM (inactive) with EKVX. Also, the GI50 in the experiment with A549 was > 100 µM (inactive); in the experiment on CCRF-CEM, 30.3 µM (inactive); in the experiment on BT-549, 67.3 µM (inactive); in the experiment with RXF 393, > 100 µM (inactive).
`Nc1cc(CO)cc(Nc2c3ccccc3nc3occc23)c1`: the GI50 is 20 µM (inactive) in the experiment on MCF7; 29.6 µM (inactive) with T47D; 25.6 µM in the experiment on HCT-15; 31.8 µM (inactive) in the experiment with MDA-MB-231; 13.7 µM (inactive) in the experiment on MOLT-4; 39 µM (inactive) in the experiment on SN12C. Moreover, the GI50 was 24.8 µM (inactive) in the experiment on SF-539; 29.1 µM (inactive) with NCI-H226; 21.2 µM (inactive) with NCI-H460; 31.3 µM (inactive) with HCC 2998; 67.5 µM (inactive) in the experiment with EKVX; 40.4 µM (inactive) in the experiment on A549. In addition, the GI50 in the experiment on CCRF-CEM was 48.1 µM (inactive); with SF-268 it was 21.3 µM (inactive); in the experiment with BT-549 it was 19.4 µM (inactive); in the experiment on Hs-578T, 31 µM (inactive).
Regarding `COC(=O)c1ccc(CN2CCc3c([nH]c4ccccc34)C2CO)o1` (centres undefined), the GI50 was > 10 µM (inactive) in the experiment on MCF7; > 10 µM (inactive) in the experiment on T47D; greater than 10 µM in the experiment with HCT-15; > 10 µM (inactive) with MDA-MB-231; > 10 µM (inactive) with SW-620; > 10 µM (inactive) with MOLT-4. Also, the GI50 in the experiment with SN12C, with HCC 2998, in the experiment with EKVX, with A549, in the experiment on CCRF-CEM and in the experiment with SF-268 was > 10 µM (inactive) throughout. Also, the GI50 in the experiment with BT-549 and in the experiment with RXF 393 was > 10 µM (inactive) each time.
Take `C[C@@](Br)(C(=O)O)[C@H](Br)C(=O)O`: the GI50 was > 100 µM (inactive) in the experiment with MCF7; > 100 µM (inactive) in the experiment on T47D; greater than 100 µM in the experiment with HCT-15; > 100 µM (inactive) in the experiment with MDA-MB-231; > 100 µM (inactive) in the experiment with SW-620; > 100 µM (inactive) in the experiment on MOLT-4. Also, the GI50 is > 100 µM (inactive) with SN12C; > 100 µM (inactive) in the experiment with NCI-H226; > 100 µM (inactive) in the experiment on NCI-H460; > 100 µM (inactive) in the experiment with HCC 2998; 83.4 µM (inactive) with EKVX; > 100 µM (inactive) in the experiment with A549. In addition, the GI50 with CCRF-CEM, with SF-268, with BT-549 and with RXF 393 was > 100 µM (inactive) throughout.
Consider `CCCC#CCOC(=O)c1cc([N+](=O)[O-])cc([N+](=O)[O-])c1`, for which the GI50 in the experiment with MCF7 was > 100 µM (inactive); with T47D, > 100 µM (inactive); in the experiment on HCT-15, greater than 100 µM; with MDA-MB-231, > 100 µM (inactive); with SW-620 it was > 100 µM (inactive); with MOLT-4 it was > 100 µM (inactive). Further, the GI50 in the experiment with SN12C, with SF-539, in the experiment with NCI-H460, in the experiment on HCC 2998, in the experiment on EKVX and with A549 was > 100 µM (inactive) each time. Also, the GI50 with CCRF-CEM, with SF-268, with BT-549 and in the experiment with Hs-578T was > 100 µM (inactive) in each case.
With `COc1ccc(/C=C2\CCCc3ccccc3C2=O)cc1`, the GI50 with MCF7 is 1.27 µM (inactive); in the experiment on HCT-15, 0.0723 µM; in the experiment with MDA-MB-231, 0.201 µM (active); in the experiment with SW-620, 0.378 µM (active); in the experiment on MOLT-4, 1.63 µM (inactive); in the experiment on SN12C, 0.117 µM (active). The GI50 in the experiment with SF-539 was 0.287 µM (active); in the experiment on NCI-H226 it was 0.116 µM (active); in the experiment with NCI-H460 it was 0.0893 µM (active); with HCC 2998, 0.2 µM (active); in the experiment with EKVX, 0.39 µM (active); with A549, 0.197 µM (active). In addition, the GI50 is 0.578 µM (active) with CCRF-CEM, 0.249 µM (active) in the experiment with SF-268, 0.143 µM (active) in the experiment on BT-549 and 0.233 µM (active) in the experiment with Hs-578T.
For `O=C(O)C(O)c1ccc(F)cc1` (centres undefined), the GI50 with MCF7 is > 100 µM (inactive); with T47D it was > 100 µM (inactive); in the experiment with HCT-15, greater than 100 µM; in the experiment on MDA-MB-231, > 100 µM (inactive); in the experiment on SW-620 it was > 100 µM (inactive); with MOLT-4, > 100 µM (inactive). The GI50 in the experiment with SN12C, with NCI-H460, with EKVX, in the experiment with A549, in the experiment with SF-268 and in the experiment on BT-549 was > 100 µM (inactive) each time. Further, the GI50 in the experiment with RXF 393 and with Hs-578T was > 100 µM (inactive) each time.
